Reference: PMC9329436, “Optimization of the 4-anilinoquin(az)oline scaffold as epidermal growth factor receptor (EGFR) inhibitors for chordoma utilizing a toxicology profiling assay platform” (Scientific Reports, 2022)

Experiments:
[1] = test system: U-CH7 patient-derived chordoma cell line; assay: Cell viability assay (alamarBlue, 72 h), U-CH7; assay type: cell-based, human; conditions: n = 4, 72 h
In short: (§1)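 Patient-derived chordoma lines and WS1 fibroblasts seeded in 384-well plates, dosed in quadruplicate 24 h after plating.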

U-CH2 chordoma cell line = assay: Cell viability assay (alamarBlue, 72 h), U-CH2; assay type: cell-based, human; conditions: n = 4, 72 h
In short: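 Cells grown in 4:1 IMDM:RPMI with 10% FBS on gel-coated flasks, dosed in quadruplicate 24 h after seeding in 384-well plates.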

[2] = test system: CH22 patient-derived chordoma cell line; assay: Cell viability assay (alamarBlue, 72 h), CH22; assay type: cell-based, human; conditions: n = 4, 72 h
In short: as §1

HL60 cells = assay: AsedaSciences SYSTEMETRIC Cell Health Screen (flow cytometry toxicity profiling); conditions: HL60, 4 h, 5 nM–100 µM; for CC: Cell Cycle score / CM: Cell morphology score / CMI: Cell membrane integrity score / GSH: Glutathione score / MMP: Mitochondrial membrane depolarization score / NMI1: Nuclear membrane integrity 1 score / NMI2: Nuclear membrane integrity 2 score / ROS: Reactive superoxide species score: probability 0–1, n = 2; for CHI: Cell Health Index: probability (0–1) of high-risk class, n = 2
In short: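 HL60 cells (100,000 per well) exposed 4 h at 37 °C, 5% CO2 to 10-step 3× dilutions (5 nM–100 µM), in duplicate. Cells then stained with mitochondrial and cell-stress reporter dyes and read by ungated flow cytometry over twelve parameters. Cell Health Index and eight endpoint scores come from an ML classifier trained on 300 high/low-risk compounds.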

VEGFR2 = VEGFR2 (Homo sapiens, UniProt P35968); assay: 33PanQinase activity assay; assay type: biochemical; conditions: 10 μM
Sequence of VEGFR2 (P35968 20-1356): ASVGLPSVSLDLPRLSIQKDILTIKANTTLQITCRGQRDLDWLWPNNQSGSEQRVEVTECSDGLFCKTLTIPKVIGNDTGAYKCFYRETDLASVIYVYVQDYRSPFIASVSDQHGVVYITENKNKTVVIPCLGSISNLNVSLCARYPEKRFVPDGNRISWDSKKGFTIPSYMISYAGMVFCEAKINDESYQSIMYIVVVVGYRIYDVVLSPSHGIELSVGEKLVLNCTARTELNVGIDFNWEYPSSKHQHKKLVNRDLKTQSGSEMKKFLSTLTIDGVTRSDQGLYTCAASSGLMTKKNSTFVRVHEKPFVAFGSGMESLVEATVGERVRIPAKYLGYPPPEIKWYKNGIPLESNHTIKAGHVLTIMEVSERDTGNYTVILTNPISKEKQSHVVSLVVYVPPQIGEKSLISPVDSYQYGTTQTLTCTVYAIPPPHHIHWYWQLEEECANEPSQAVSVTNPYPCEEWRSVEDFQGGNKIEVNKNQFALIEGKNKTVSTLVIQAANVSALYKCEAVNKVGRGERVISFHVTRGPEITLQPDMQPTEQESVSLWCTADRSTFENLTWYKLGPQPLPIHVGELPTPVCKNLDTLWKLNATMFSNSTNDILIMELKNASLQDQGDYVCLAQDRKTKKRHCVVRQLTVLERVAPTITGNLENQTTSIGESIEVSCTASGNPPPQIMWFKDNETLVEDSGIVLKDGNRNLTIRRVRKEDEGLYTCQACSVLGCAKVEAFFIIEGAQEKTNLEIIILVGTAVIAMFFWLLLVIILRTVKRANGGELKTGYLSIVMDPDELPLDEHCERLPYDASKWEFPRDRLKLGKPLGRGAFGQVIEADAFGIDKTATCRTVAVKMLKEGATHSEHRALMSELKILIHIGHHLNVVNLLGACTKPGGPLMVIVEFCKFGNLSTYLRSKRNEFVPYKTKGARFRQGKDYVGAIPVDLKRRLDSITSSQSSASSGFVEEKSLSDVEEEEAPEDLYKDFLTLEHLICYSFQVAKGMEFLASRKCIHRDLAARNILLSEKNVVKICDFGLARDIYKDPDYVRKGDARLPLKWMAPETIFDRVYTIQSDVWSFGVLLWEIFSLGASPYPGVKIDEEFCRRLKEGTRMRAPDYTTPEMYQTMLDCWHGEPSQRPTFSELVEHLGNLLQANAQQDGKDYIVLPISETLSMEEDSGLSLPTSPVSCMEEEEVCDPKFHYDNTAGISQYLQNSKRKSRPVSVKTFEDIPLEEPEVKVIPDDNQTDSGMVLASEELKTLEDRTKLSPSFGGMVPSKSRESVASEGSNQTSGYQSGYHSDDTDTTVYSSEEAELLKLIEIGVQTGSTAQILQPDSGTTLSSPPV
Excerpt: Table S4. Profiling of two compounds at two concentrations against 320 wild-type protein kinases; singlicate measurement; Residual activities (% of control).

Row | SMILES | IC50 [1] | IC50 (U-CH2 chordoma cell line) | IC50 [2] | CC: Cell Cycle score (HL60 cells) | CM: Cell morphology score (HL60 cells) | CMI: Cell membrane integrity score (HL60 cells) | GSH: Glutathione score (HL60 cells) | MMP: Mitochondrial membrane depolarization score (HL60 cells) | NMI1: Nuclear membrane integrity 1 score (HL60 cells) | NMI2: Nuclear membrane integrity 2 score (HL60 cells) | ROS: Reactive superoxide species score (HL60 cells) | CHI: Cell Health Index (HL60 cells) | VEGFR2 inhibition (VEGFR2)
1 | C#Cc1cc(Nc2ncnc3cc(I)ccc23)ccc1Cl [Compound 41] | 8 µM | 16 µM | 0.48 µM | 0.91 | 1.00 | 1.00 | 0.99 | 1.00 | 1.00 | 1.00 | 0.99 | 0.88 | –
2 | C#Cc1cc(Nc2ncnc3cc(OC)c(OC)cc23)ccc1Cl [Compound 45] | 74 µM | 35 µM | 1.2 µM | 0.10 | 1.00 | 0.51 | 0.079 | 0.48 | 0.60 | 0.40 | 0.77 | 0.60 | > 50%
